Biological target: T1, tmMBP (tmMBP2 isoform; maltodextrin-binding protein) (Thermotoga maritima, UniProt Q9S5Y1)
T1 construct: gene TM_1839; H/D-exchanged crystal, single chain in asymmetric unit
T1 sequence (Q9S5Y1 20-393): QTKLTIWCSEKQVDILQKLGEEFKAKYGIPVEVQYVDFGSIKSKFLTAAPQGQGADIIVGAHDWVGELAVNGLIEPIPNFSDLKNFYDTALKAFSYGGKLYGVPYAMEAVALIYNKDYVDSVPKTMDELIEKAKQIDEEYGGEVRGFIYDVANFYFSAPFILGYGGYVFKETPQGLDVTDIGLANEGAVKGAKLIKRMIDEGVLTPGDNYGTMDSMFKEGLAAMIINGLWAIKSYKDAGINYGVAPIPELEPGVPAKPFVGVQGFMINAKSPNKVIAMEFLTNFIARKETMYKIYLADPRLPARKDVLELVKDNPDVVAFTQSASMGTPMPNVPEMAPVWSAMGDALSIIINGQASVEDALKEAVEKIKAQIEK
Assay: joint neutron/X-ray crystal structure
Conditions: pH 5.5 crystals, room temperature, D2O exchanged; interdomain binding site; neutron 2.10 A, X-ray 1.70 A

OC[C@H]1O[C@H](O[C@H]2[C@H](O)[C@@H](O)[C@@H](O[C@H]3[C@H](O)[C@@H](O)[C@@H](O[C@H]4[C@H](O)[C@@H](O)C(O)O[C@@H]4CO)O[C@@H]3CO)O[C@@H]2CO)[C@H](O)[C@@H](O)[C@@H]1O (stereo partly shown) [maltotetraose]
joint neutron/X-ray crystal structure: final refined atomic model for maltotetraose bound tmMBP have been deposited

From article PMC9587032, “Mapping periplasmic binding protein oligosaccharide recognition with neutron crystallography” (Scientific Reports, 2022)
